Consider 24 molecules from US11021467B2, “Phosphatidylinositol 3-kinase inhibitors” (Gilead Sciences, Inc., priority 2014, dated 2021).

What all share (assay): TR-FRET enzymatic activity assay against PI3K isoforms
Common to all, as to format: biochemical
(In TR-FRET formats the signal depends on donor and acceptor labels being close together.)

The target of one experiment is PI3Kδ (Homo sapiens (Human), UniProt O00329). Particulars: 2×Km ATP, 30 minutes at 25° C. The source says: (§1) The compounds of formula (I) were characterized for their enzymatic activity against the PI3K isoforms. […] TR-FRET monitored the formation of 3,4,5-inositol triphosphate molecule that competed with fluorescently labeled PIP3 for binding to the GRP-1 pleckstrin homology domain protein.

The target of another experiment is PI3Kβ (Homo sapiens (Human), UniProt P42338). Particulars: for IC50: PI3Kβ, TR-FRET, 2×Km ATP, 30 minutes at 25° C.
From the text: as §1

Another experiment concerns the target PI3Kγ (Homo sapiens (Human), UniProt P48736). Particulars: 2×Km ATP, 30 minutes at 25° C.
From the text: as §1

PI3Kβ, sequence (P42338 whole entry): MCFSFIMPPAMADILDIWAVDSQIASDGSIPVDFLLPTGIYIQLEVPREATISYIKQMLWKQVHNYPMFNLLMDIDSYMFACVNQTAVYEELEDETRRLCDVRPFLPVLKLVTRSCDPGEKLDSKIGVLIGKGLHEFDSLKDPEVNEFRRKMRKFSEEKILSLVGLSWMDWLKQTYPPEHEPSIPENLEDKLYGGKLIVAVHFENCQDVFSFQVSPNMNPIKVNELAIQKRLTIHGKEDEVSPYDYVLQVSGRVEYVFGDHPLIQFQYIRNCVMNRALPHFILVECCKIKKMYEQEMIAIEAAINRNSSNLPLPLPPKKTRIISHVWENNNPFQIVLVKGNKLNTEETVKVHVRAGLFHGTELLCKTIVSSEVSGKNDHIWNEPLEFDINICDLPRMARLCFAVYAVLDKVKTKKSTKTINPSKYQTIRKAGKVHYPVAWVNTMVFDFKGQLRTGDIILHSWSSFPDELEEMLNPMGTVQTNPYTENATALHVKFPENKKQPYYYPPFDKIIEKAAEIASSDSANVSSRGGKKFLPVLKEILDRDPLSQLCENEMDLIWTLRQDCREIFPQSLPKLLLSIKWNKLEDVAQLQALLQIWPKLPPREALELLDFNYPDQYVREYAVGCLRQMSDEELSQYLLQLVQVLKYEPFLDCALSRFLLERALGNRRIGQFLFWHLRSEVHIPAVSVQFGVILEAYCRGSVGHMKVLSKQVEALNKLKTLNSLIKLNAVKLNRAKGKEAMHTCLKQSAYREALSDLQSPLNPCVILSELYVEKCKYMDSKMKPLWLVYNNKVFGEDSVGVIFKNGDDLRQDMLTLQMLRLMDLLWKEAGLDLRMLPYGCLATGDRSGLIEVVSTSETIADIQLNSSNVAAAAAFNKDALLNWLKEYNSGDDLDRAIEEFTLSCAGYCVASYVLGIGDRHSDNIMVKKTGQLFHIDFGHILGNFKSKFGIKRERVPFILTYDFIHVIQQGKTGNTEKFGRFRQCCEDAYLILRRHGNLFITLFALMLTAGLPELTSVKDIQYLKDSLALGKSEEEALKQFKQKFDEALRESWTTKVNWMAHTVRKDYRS
PI3Kβ, sequence (P27986 whole entry partner): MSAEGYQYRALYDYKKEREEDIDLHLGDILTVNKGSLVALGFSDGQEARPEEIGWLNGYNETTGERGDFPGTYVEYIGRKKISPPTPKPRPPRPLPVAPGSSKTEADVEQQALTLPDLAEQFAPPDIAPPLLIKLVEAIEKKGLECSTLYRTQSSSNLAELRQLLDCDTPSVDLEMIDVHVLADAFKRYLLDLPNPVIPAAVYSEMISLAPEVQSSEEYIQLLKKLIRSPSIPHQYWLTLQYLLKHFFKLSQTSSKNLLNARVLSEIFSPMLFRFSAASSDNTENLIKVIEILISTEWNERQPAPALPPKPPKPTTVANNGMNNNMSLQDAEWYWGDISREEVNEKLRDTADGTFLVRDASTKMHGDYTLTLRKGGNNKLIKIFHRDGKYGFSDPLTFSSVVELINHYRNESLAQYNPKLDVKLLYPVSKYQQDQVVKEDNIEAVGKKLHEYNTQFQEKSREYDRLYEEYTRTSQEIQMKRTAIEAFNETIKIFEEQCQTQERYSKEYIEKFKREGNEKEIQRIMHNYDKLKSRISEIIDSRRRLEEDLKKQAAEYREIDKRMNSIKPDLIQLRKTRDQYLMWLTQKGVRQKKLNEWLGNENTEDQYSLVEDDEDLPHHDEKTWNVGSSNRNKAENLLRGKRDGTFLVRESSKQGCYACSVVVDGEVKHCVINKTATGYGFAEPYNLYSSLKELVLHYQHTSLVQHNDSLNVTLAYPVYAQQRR
PI3Kδ, sequence (O00329 whole entry, the tested form may be a part, canonical isoform): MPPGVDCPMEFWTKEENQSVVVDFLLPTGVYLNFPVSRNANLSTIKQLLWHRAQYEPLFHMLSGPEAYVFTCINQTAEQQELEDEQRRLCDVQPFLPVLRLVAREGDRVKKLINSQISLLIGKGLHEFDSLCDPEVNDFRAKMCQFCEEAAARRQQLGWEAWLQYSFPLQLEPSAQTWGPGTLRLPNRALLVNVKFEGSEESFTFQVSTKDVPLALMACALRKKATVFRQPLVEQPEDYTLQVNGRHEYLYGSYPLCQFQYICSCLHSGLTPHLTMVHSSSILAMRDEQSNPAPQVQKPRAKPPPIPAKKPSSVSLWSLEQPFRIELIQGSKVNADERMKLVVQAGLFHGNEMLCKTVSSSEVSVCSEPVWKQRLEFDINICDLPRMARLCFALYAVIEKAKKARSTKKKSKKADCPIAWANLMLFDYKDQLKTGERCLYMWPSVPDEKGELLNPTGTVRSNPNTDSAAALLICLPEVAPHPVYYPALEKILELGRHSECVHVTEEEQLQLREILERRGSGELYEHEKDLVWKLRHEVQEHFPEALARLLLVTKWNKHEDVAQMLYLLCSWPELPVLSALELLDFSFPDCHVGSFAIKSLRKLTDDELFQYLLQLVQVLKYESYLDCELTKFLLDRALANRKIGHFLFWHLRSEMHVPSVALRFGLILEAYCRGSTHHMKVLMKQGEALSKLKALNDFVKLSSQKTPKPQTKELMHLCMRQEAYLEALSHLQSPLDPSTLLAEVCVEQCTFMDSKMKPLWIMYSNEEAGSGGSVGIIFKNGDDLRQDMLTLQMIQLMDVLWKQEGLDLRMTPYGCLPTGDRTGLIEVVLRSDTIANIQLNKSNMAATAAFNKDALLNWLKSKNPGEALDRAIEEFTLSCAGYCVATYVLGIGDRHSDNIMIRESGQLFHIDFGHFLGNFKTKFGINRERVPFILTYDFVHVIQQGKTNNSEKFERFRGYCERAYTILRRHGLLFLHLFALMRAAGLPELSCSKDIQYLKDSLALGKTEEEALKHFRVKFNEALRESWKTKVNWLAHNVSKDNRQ
PI3Kδ, sequence (P27986 whole entry partner, the tested form may be a part, canonical isoform): as the sequence (P27986 whole entry partner) above
PI3Kγ, sequence (P48736 whole entry): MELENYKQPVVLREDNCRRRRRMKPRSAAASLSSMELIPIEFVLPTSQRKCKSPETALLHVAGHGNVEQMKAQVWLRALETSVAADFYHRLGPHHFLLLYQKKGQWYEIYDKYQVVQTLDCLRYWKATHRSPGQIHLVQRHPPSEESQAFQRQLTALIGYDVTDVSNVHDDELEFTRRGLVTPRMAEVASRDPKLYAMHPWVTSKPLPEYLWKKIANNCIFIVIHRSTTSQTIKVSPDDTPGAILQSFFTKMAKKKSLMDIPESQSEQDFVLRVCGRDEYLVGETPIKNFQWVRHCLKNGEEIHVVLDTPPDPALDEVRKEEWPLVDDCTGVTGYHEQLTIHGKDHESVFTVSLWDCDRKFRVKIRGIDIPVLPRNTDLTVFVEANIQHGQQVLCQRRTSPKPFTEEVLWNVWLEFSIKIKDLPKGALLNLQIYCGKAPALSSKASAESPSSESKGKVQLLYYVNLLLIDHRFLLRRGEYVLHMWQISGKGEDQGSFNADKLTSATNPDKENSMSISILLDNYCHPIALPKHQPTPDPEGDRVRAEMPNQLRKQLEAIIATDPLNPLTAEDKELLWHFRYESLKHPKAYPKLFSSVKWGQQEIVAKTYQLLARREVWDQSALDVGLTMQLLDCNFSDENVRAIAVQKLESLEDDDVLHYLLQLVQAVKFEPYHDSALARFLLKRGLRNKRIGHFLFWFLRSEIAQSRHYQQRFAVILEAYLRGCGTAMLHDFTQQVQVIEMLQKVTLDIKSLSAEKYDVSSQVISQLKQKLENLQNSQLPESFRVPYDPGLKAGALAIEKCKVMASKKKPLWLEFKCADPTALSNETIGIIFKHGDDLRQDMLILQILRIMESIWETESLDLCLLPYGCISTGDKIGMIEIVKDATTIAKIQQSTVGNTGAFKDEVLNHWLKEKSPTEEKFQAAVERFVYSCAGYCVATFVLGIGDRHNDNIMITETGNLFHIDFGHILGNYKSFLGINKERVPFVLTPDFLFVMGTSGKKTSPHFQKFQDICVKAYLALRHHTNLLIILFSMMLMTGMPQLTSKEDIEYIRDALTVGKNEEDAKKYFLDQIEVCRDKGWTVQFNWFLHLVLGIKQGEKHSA

For `CC(CCN)n1c([C@H](C)Nc2ncnc(N)c2C#N)nc2cccc(Cl)c2c1=O` (stereo partly drawn) [Compound 24, 4-amino-6-(((1S)-1-(3-(4-aminobutan-2-yl)-5-chloro-4-oxo-3,4-dihydroquinazolin-2-yl)ethyl)amino)pyrimidine-5-carbonitrile], the IC50 against PI3Kδ was 0.006 µM; against PI3Kβ it was 0.051 µM; against PI3Kγ it was at least 10 µM.

As to `CC(CN)n1c([C@H](C)Nc2ncnc(N)c2C#N)nc2cccc(Cl)c2c1=O` (stereo partly drawn) [Compound 25, 4-amino-6-(((1S)-1-(3-(1-aminopropan-2-yl)-5-chloro-4-oxo-3,4-dihydroquinazolin-2-yl)ethyl)amino)pyrimidine-5-carbonitrile], the IC50 against PI3Kδ is 0.1 µM; at PI3Kβ, 1.3 µM; at PI3Kγ, at least 10 µM.

On to `C[C@H](Nc1ncnc(N)c1C#N)c1nc2cccc(Cl)c2c(=O)n1CCN` [Compound 26, (S)-4-amino-6-((1-(3-(2-aminoethyl)-5-chloro-4-oxo-3,4-dihydroquinazolin-2-yl)ethyl)amino)pyrimidine-5-carbonitrile], for which the results for the IC50 against PI3Kδ, on PI3Kβ and against PI3Kγ were 0.15 µM, 0.74 µM and at least 10 µM, respectively.

Consider `CC(CN)Cn1c([C@H](C)Nc2ncnc(N)c2C#N)nc2cccc(Cl)c2c1=O` (stereo partly drawn) [Compound 27, 4-amino-6-(((1S)-1-(3-(3-amino-2-methylpropyl)-5-chloro-4-oxo-3,4-dihydroquinazolin-2-yl)ethyl)amino)pyrimidine-5-carbonitrile], for which the half-maximal inhibitory concentration (IC50) against PI3Kδ is 0.007 µM; on PI3Kβ it was 0.2 µM; at PI3Kγ, at least 10 µM.

As for `C[C@H](Nc1ncnc(N)c1C#N)c1nc2cccc(Cl)c2c(=O)n1CCCCN` [Compound 28, (S)-4-amino-6-((1-(3-(4-aminobutyl)-5-chloro-4-oxo-3,4-dihydroquinazolin-2-yl)ethyl)amino)pyrimidine-5-carbonitrile], the figures for the IC50 on PI3Kδ, against PI3Kβ and on PI3Kγ were 0.003 µM, 0.1 µM and at least 10 µM, respectively.

Consider `Cc1cccc2nc([C@H](C)Nc3ncnc(N)c3C#N)n(CCCN)c(=O)c12` [Compound 29, (S)-4-amino-6-((1-(3-(3-aminopropyl)-5-methyl-4-oxo-3,4-dihydroquinazolin-2-yl)ethyl)amino)pyrimidine-5-carbonitrile], for which the IC50 is 0.007 µM at PI3Kδ, 0.047 µM at PI3Kβ and at least 10 µM against PI3Kγ.

Consider `C[C@H](Nc1ncnc(N)c1Cl)c1nc2cccc(Cl)c2c(=O)n1CCCN` [Compound 30, (S)-2-(1-((6-amino-5-chloropyrimidin-4-yl)amino)ethyl)-3-(3-aminopropyl)-5-chloroquinazolin-4(3H)-one], for which the values for the IC50 against PI3Kδ, against PI3Kβ and on PI3Kγ were 0.011 µM, 0.11 µM and at least 10 µM, respectively.

For `CNCCCn1c([C@H](C)Nc2ncnc(N)c2C#N)nc2cccc(Cl)c2c1=O` [Compound 31, (S)-4-amino-6-((1-(5-chloro-3-(3-(methylamino)propyl)-4-oxo-3,4-dihydroquinazolin-2-yl)ethyl)amino)pyrimidine-5-carbonitrile], the IC50 is 0.006 µM on PI3Kδ, 0.047 µM against PI3Kβ and at least 10 µM at PI3Kγ.

Take `C[C@H](NC(=O)c1c(N)nn2cccnc12)c1nc2cccc(Cl)c2c(=O)n1CCCN` [Compound 32, (S)-2-amino-N-(1-(3-(3-aminopropyl)-5-chloro-4-oxo-3,4-dihydroquinazolin-2-yl)ethyl)pyrazolo[1,5-a]pyrimidine-3-carboxamide]: the IC50 worked out at 0.092 µM against PI3Kδ, 0.044 µM against PI3Kβ and 3.2 µM on PI3Kγ.

Consider `CC(C)C[C@H](Nc1ncnc(N)c1C#N)c1nc2cccc(Cl)c2c(=O)n1CCCN` [Compound 33, (S)-4-amino-6-((1-(3-(3-aminopropyl)-5-chloro-4-oxo-3,4-dihydroquinazolin-2-yl)-3-methylbutyl)amino)pyrimidine-5-carbonitrile], for which the IC50 against PI3Kδ is 0.21 µM; at PI3Kβ it was 2.1 µM; against PI3Kγ it was at least 10 µM.

For `CC[C@H](Nc1ncnc(N)c1C#N)c1nc2cccc(Cl)c2c(=O)n1CCCN` [Compound 34, (S)-4-amino-6-((1-(3-(3-aminopropyl)-5-chloro-4-oxo-3,4-dihydroquinazolin-2-yl)propyl)amino)pyrimidine-5-carbonitrile], the IC50 was 0.079 µM against PI3Kδ, 0.25 µM against PI3Kβ and at least 10 µM against PI3Kγ.

Take `NCCCn1c([C@@H](Nc2ncnn3ccnc23)C2CC2)nc2cccc(Cl)c2c1=O` [Compound 35, (S)-3-(3-aminopropyl)-5-chloro-2-(cyclopropyl(imidazo[2,1-][1,2,4]triazin-4-ylamino)methyl)quinazolin-4(3H)-one]: the IC50 is 0.021 µM against PI3Kδ, 0.11 µM on PI3Kβ and at least 10 µM against PI3Kγ.

Consider `CC[C@H](Nc1nc(N)nc(N)c1C#N)c1nc2cccc(Cl)c2c(=O)n1CCCN` [Compound 36, (S)-2,4-diamino-6-((1-(3-(3-aminopropyl)-5-chloro-4-oxo-3,4-dihydroquinazolin-2-yl)propyl)amino)pyrimidine-5-carbonitrile], for which the IC50 is 0.027 µM against PI3Kδ, 0.071 µM against PI3Kβ and 8.2 µM at PI3Kγ.

Regarding `NCCCn1c([C@@H](Nc2ncnc3cccnc23)C2CC2)nc2cccc(Cl)c2c1=O` [Compound 37, (S)-3-(3-aminopropyl)-5-chloro-2-(cyclopropyl(pyrido[3,2-d]pyrimidin-4-ylamino)methyl)quinazolin-4(3H)-one], the half-maximal inhibitory concentration (IC50) at PI3Kδ came out at 0.016 µM; against PI3Kβ it was 0.057 µM; against PI3Kγ, 4.8 µM.

In the case of `NCCCn1c([C@@H](Nc2nc(N)nc(N)c2Cl)C2CC2)nc2cccc(Cl)c2c1=O` [Compound 38, (S)-3-(3-aminopropyl)-5-chloro-2-(cyclopropyl((2,6-diamino-5-chloropyrimidin-4-yl)amino)methyl)quinazolin-4(3H)-one], the IC50 was 0.012 µM against PI3Kδ, 0.044 µM against PI3Kβ and at least 10 µM on PI3Kγ.

Take `CNCCCn1c([C@H](C)Nc2nc(N)nc(N)c2C#N)nc2cccc(Cl)c2c1=O` [Compound 39, (S)-2,4-diamino-6-((1-(5-chloro-3-(3-(methylamino)propyl)-4-oxo-3,4-dihydroquinazolin-2-yl)ethyl)amino)pyrimidine-5-carbonitrile]: the IC50 was found to be 0.003 µM against PI3Kδ, 0.025 µM at PI3Kβ and 2.4 µM on PI3Kγ.

Consider `N#Cc1c(N)ncnc1N[C@H](c1nc2cccc(Cl)c2c(=O)n1CCCN)C1CC1` [Compound 40, (S)-4-amino-6-(((3-(3-aminopropyl)-5-chloro-4-oxo-3,4-dihydroquinazolin-2-yl)(cyclopropyl)methyl)amino)pyrimidine-5-carbonitrile], for which the IC50 is 0.009 µM at PI3Kδ, 0.021 µM against PI3Kβ and at least 10 µM against PI3Kγ.

`CNCCCn1c([C@H](C)Nc2nc(N)nc(C)c2C#N)nc2cccc(Cl)c2c1=O` [Compound 41, (S)-2-amino-4-((1-(5-chloro-3-(3-(methylamino)propyl)-4-oxo-3,4-dihydroquinazolin-2-yl)ethyl)amino)-6-methylpyrimidine-5-carbonitrile]: the figures for the IC50 on PI3Kδ, at PI3Kβ and at PI3Kγ were 0.003 µM, 0.015 µM and 1.8 µM, respectively.

Take `C[C@H](Nc1nc(N)nc(N)c1C#N)c1nc2cccc(Cl)c2c(=O)n1CCCN` [Compound 42, (S)-2,4-diamino-6-((1-(3-(3-aminopropyl)-5-chloro-4-oxo-3,4-dihydroquinazolin-2-yl)ethyl)amino)pyrimidine-5-carbonitrile]: the values for the IC50 on PI3Kδ, on PI3Kβ and on PI3Kγ were 0.002 µM, 0.015 µM and 1.4 µM, respectively.

For `NCCCn1c([C@@H](Nc2ncnc3[nH]cc(Br)c23)C2CC2)nc2cccc(Cl)c2c1=O` [Compound 43, (S)-3-(3-aminopropyl)-2-(((5-bromo-7H-pyrrolo[2,3-d]pyrimidin-4-yl)amino)(cyclopropyl)methyl)-5-chloroquinazolin-4(3H)-one], the IC50 at PI3Kδ was found to be 0.006 µM; at PI3Kβ, 0.007 µM; against PI3Kγ, 3.4 µM.

In the case of `N#Cc1c(Cl)nc(N)nc1N[C@H](c1nc2cccc(Cl)c2c(=O)n1CCCN)C1CC1` [Compound 44, (S)-2-amino-4-(((3-(3-aminopropyl)-5-chloro-4-oxo-3,4-dihydroquinazolin-2-yl)(cyclopropyl)methyl)amino)-6-chloropyrimidine-5-carbonitrile], the figures for the IC50 against PI3Kδ, on PI3Kβ and on PI3Kγ were 0.011 µM, 0.008 µM and 6 µM, respectively.

For `NCCCn1c([C@@H](Nc2ncnc3scnc23)C2CC2)nc2cccc(Cl)c2c1=O` [Compound 45, (S)-3-(3-aminopropyl)-5-chloro-2-(cyclopropyl(thiazolo[5,4-d]pyrimidin-7-ylamino)methyl)quinazolin-4(3H)-one], the IC50 against PI3Kδ stood at 0.004 µM; on PI3Kβ, 0.007 µM; against PI3Kγ it was 2.1 µM.

`CNCCCn1c([C@@H](Nc2nc(N)nc(N)c2C#N)C2CC2)nc2cccc(Cl)c2c1=O` [Compound 46, (S)-2,4-diamino-6-(((5-chloro-3-(3-(methylamino)propyl)-4-oxo-3,4-dihydroquinazolin-2-yl)(cyclopropyl)methyl)amino)pyrimidine-5-carbonitrile]: the IC50 against PI3Kδ was determined as 0.003 µM; on PI3Kβ, 0.006 µM; on PI3Kγ, 2.5 µM.

On to `N#Cc1c(N)nc(N)nc1N[C@H](c1nc2cccc(Cl)c2c(=O)n1CCCN)C1CC1` [Compound 47, (S)-2,4-diamino-6-(((3-(3-aminopropyl)-5-chloro-4-oxo-3,4-dihydroquinazolin-2-yl)(cyclopropyl)methyl)amino)pyrimidine-5-carbonitrile], for which the figures for the IC50 against PI3Kδ, against PI3Kβ and against PI3Kγ were 0.003 µM, 0.005 µM and 1.1 µM, respectively. Further, the PI3Kγ/PI3Kβ ratio on PI3Kβ (ratio of IC50 values, selectivity for PI3Kβ over PI3Kγ) worked out at 230.

Usually IC50 stands for the concentration at which inhibition is half-maximal. Higher therefore signals lower potency.
